Reference: patent publication US10124012B2, “Method for treatment of hyperglycemia and hyperlipidemia” (priority 2016, dated 2018)

Key:
membrane GLUT4 = assay: Membrane GLUT4 expression in C2C12 cells (Western blotting); format: cell-based; settings: AnK 1, 5, 10 and 25 μg/mL 30 min, insulin 100 nM 25 min, vs CON group
Description: (§1) For the in vitro assay, C2C12 skeletal myoblasts (ATCC CRL-1772) were cultured at 37° C. in Dulbecco's modified Eagle's medium (DMEM; Gibco BRL) supplemented with 10% fetal bovine serum (FBS; Hyclone) and 100 U/ml penicillin and 100 μg/ml streptomycin (Gibco BRL), and split 1:4 using 0.05% trypsin at 80% confluency. Myoblasts were diluted and placed in a 9 cm dish. Cells were cultured to achieve 80-90% confluency and refreshed with […] (2% FBS/DMEM) every 24 hours for 5-7 days. The term “confluency” refers to the proportion of the surface of a culture dish that is covered by adherent cells growing in the dish. 100% confluency refers to complete coverage of the surface by the cells.
(§2) Differentiated C2C12 cells were serum-starved in DMEM/BSA at 37° C. for 2 hours prior to incubation with AnK (at 1, 5, 10, and 25 μg/mL) or vehicle (0.2% dimethyl sulfoxide (DMSO) in saline) for 30 min or with 100 nM insulin for 25 min.
The C2C12 cells of the other group were homogenized in a homogenization buffer having a pH value of about 7.4 and containing 250 mM sucrose, 50 mM Tris, and 0.2 mM edetic acid (EDTA). […]
(§3) Protein concentrations were determined via BCA assay (Pierce). […]
(§4) SDS polyacrylamide gel electrophoresis (SDS-PAGE) and Western blotting. Proteins were detected with antibodies specific for GLUT4, Akt, phospho-Akt (Ser^473), AMPK, and phospho-AMPK (Thr^172).

[1] = test system: phospho-Akt (Ser^473)/total-Akt; assay: Akt phosphorylation in C2C12 cells (Western blotting); format: cell-based; settings: AnK 1, 5, 10 and 25 μg/mL 30 min, insulin 100 nM 25 min, vs CON group
Description: as §1, §2
(§5) The abovementioned C2C12 cells were then washed three times with phosphate buffered saline (PBS) and divided into two groups. […]
as §3, §4

[2] = test system: phospho-AMPK (Thr^172)/total-AMPK; assay: AMPK phosphorylation in C2C12 cells (Western blotting); format: cell-based; settings: AnK 1, 5, 10 and 25 μg/mL 30 min, insulin 100 nM 25 min, vs CON group
Description: as §1, §2, §5, §3, §4

[3] = test system: human liver cancer Hep3B cells; settings: cited from earlier work

C=C(CC[C@@H](C)[C@H]1CC[C@H]2C3=C(C(=O)C[C@]12C)[C@@]1(C)CC[C@@H](O)[C@](C)(O)[C@@H]1C[C@@H]3O)C(C)C(=O)O (stereo partly drawn) [AnK, 3α,4β,7β-trihydroxy-4α-methylergosta-8,24(28)-dien-11-on-25S-26-oic acid]
protein expression of membrane GLUT4 (membrane GLUT4): enhanced | expression ratio of phospho-Akt (p-Akt) to total-Akt (t-Akt) [1]: higher | expression ratio of phospho-AMPK (p-AMPK) to total-AMPK (t-AMPK) [2]: higher | apoptotic cell death [3]: inducing apoptotic cell death
